Data published in patent US10076504B2, “Glucagon antagonists” (Ligand Pharmaceuticals, Inc., priority 2014, dated 2018).
Entries after “also recorded” stand apart in the source; their conditions may differ. Like-named read-outs stand apart in the source and are kept apart here.

Assays:
[1] = Liver microsome incubation; assay type: in vitro ADME, human
Procedure: The compound of Formula IIIa (below) was incubated for 60 minutes at 37 C with mouse, rat, dog, monkey, and human liver microsomes.
Concentrations of IIIa were measured at multiple time points by LC-MS/MS. IIIa was stable with predicted clearance well below hepatic blood flow in all species.

[2] = Pharmacokinetics after oral and IV administration; assay type: in vivo; settings: IV Dose 1 mg/kg, PO Dose 3 mg/kg; for AUC(0-t) / Cmax / Tmax / clearance / half-life / Vd: plasma; for Vd: read-out: VSS
Procedure: Pharmacokinetics of IIIa were evaluated after both oral and IV administration in mice, rats, dogs, and monkeys.

[3] = Single ascending dose study, pharmacokinetics; assay type: in vivo, human; settings: for AUC(0-inf) / Cmax / Tmax / half-life: human, plasma, po; for time to peak plasma concentrations: post dose
Procedure: (§1) Oral doses of IIIa were administered to normal healthy volunteers (NHV) and subjects with type 2 diabetes mellitus (T2DM). A single center, randomized, double-blind, placebo-controlled single ascending dose study was done in both NHV (n=48) and T2DM subjects (n=8). Dose escalation only occurred after review of safety and tolerability data from previous dose levels (n=8/cohort; 2-placebo & 6-IIIa). Dosing of the T2DM cohort was initiated only after the equivalent dose had been administered to NHV and safety data had been reviewed. All subjects were administered IIIa in the morning after an overnight fast with the exception of the NHV in the 40 mg cohort. NHV subjects in the 40 mg cohort initially received IIIa in a fasted state. Following a 3 week washout period, IIIa was readministered after breakfast at 40 mg to determine the effects of food consumption on pharmacokinetics.
This was a single center, randomized, double-blind, placebo-controlled single ascending dose study in both normal healthy volunteers (NHV) (n=48) and subjects with type 2 diabetes mellitus (T2DM) (n=8). All subjects were administered Formula IIIa as a solution formulated with Captisol® after an overnight fast with the exception of the NHV in the 40 mg cohort. The NHV 40 mg cohort initially received Formula IIIa in a fasted state. Following a washout period, subjects received 40 mg Formula IIIa after breakfast to explore the effects of food consumption on pharmacokinetics.
Plasma levels of Formula IIIa were measured by validated LC-MS/MS method. Formula IIIa was well absorbed after oral administration with peak plasma concentrations reached approximately 5-8 hours post dose. Consistent with preclinical predictions, clearance was slow and Formula IIIa was not detected in the urine.

fasting plasma glucose = test: Single ascending dose study, pharmacodynamics; assay type: in vivo, human
Procedure: as §1
Formula IIIa was well-absorbed after oral administration; peak plasma concentrations were reached approximately 5 to 8 hours post dose with a long elimination half-life of about 50 hours. Such data supports, for example, once-daily dosing of Formula III. The effects of Formula IIIa on fasting and post-prandial plasma glucose, glucagon, insulin, and glucagon-like peptide-1 (GLP-1) were evaluated in NH and T2DM subjects, and a meal tolerance test (MTT) and continuous glucose monitoring (CGM) were performed in T2DM subjects. […] The decrease in glucose was most obvious in the fasting plasma glucose (FPG) levels 24 and 48 hours post-dose. The magnitude of decrease in FPG was greater in subjects with T2DM than in NH subjects.

[4] = human subjects, oral administration
[5] = 40 mg, Diabetic, 40 mg oral, Fasted
[6] = 40 mg, Normal healthy volunteer, 40 mg oral, Fasted
[7] = 40 mg, Normal healthy volunteer, 40 mg oral, Fed
[8] = T2DM subjects, single dose 40 mg

For Cc1cc(C)c(-c2ccc(NC(=O)[C@H](Cc3ccc(C(=O)NCCS(=O)(=O)O)cc3)c3ccc(-c4ccc(C(C)(C)C)cc4)cc3)cc2)c(C)c1 [IIIa], the “1st-order kinetic rate constant” value ([1]; Human liver microsomes, 60 minutes at 37 C) was 0.0021 min⁻¹, the Predicted systemic clearance ([1]; Human, from liver microsomes) was 3.18 mL/min/kg body weight and the F ([2]; Dog) was 54%. For the same compound, the F ([2]; Monkey) was 21%, the F ([2]; Mouse) was 47% and the F ([2]; Rat) was 36%. It also gave an AUC(0-t) ([2]; Dog) of 225000 ng·h/mL, a Cmax ([2]; Dog) of 10900 ng/mL and a Tmax ([2]; Dog) of 4 h. The clearance ([2]; Dog) was 0.07 mL/min/kg, the half-life ([2]; Dog) was 46 h and the Vd ([2]; Dog) was 0.24 L/kg. For the same compound, the AUC(0-t) ([2]; Monkey) was 9850 ng·h/mL, the Cmax ([2]; Monkey) was 1250 ng/mL and the Tmax ([2]; Monkey) was 4 h. It also gave a clearance ([2]; Monkey) of 1.13 mL/min/kg, a half-life ([2]; Monkey) of 16.2 h and a Vd ([2]; Monkey) of 0.16 L/kg. For the same compound, the AUC(0-t) ([2]; Mouse) was 16300 ng·h/mL, the Cmax ([2]; Mouse) was 1710 ng/mL and the Tmax ([2]; Mouse) was 6 h. The clearance ([2]; Mouse) was 22.2 mL/min/kg, the half-life ([2]; Mouse) was 5.9 h and the Vd ([2]; Mouse) was 0.62 L/kg. The AUC(0-t) ([2]; Rat) was 7600 ng·h/mL, the Cmax ([2]; Rat) was 1330 ng/mL and the Tmax ([2]; Rat) was 2 h. The clearance ([2]; Rat) was 2.33 mL/min/kg, the half-life ([2]; Rat) was 10.9 h and the Vd ([2]; Rat) was 0.3 L/kg. For the same compound, the “pharmacokinetics in healthy volunteers vs diabetic subjects” value ([3]; 40 mg) was “comparable”, the “effect of food on pharmacokinetics” value ([3]; 40 mg, healthy volunteers, fasted vs after breakfast) was “comparable” and the “plasma exposure versus dose” value ([3]; 2 to 480 mg oral, human subjects) was “Dose dependent increases”. It also gave a CL/F ([3]; Diabetic, 40 mg oral, Fasted) of 1.32 L/h, a CL/F ([3]; Normal healthy volunteer, 40 mg oral, Fasted) of 1.33 L/h and a CL/F ([3]; Normal healthy volunteer, 40 mg oral, Fed) of 1.67 L/h. For the same compound, the “absorption after oral administration” value ([3]; human subjects) was “well absorbed”, the clearance [3, 4] was “slow” and the “detection in the urine” value [3, 4] was “not detected”. For the same compound, the “absorption after oral administration” value ([3]; human subjects, listed as Formula IIIa) was “well absorbed; also recorded: well-absorbed”, the AUC(0-inf) [3, 5] was 33700 ng·h/mL and the Cmax [3, 5] was 1420 ng/mL. For the same compound, the Tmax [3, 5] was 7.5 h, the half-life ([3]; 40 mg, Diabetic, 40 mg oral, Fasted, read-out: t1/2 (converted)) was 58.5 h and the AUC(0-inf) [3, 6] was 32700 ng·h/mL. It also gave a Cmax [3, 6] of 893 ng/mL, a Tmax [3, 6] of 8.4 h and a half-life ([3]; 40 mg, Normal healthy volunteer, 40 mg oral, Fasted, read-out: t1/2 (converted)) of 51.6 h. It also gave an AUC(0-inf) [3, 7] of 25200 ng·h/mL, a Cmax [3, 7] of 779 ng/mL and a Tmax [3, 7] of 7.2 h. For the same compound, the half-life ([3]; 40 mg, Normal healthy volunteer, 40 mg oral, Fed, read-out: t1/2 (converted)) was 53.8 h, the half-life ([3]; oral administration, NH and T2DM subjects, read-out: elimination half-life (converted)) was ~50 h and the “time to peak plasma concentrations” value ([3]; oral administration, human subjects) was 5 to 8 h. For the same compound, the “time to peak plasma concentrations” value ([3]; oral administration, human subjects, listed as Formula IIIa) was 5 to 8 h, the glucose levels (fasting plasma glucose; NH subjects) was “small decreases in glucose levels approximating dose-dependency” and the “mean glucagon and total GLP-1 levels” value (fasting plasma glucose; NH subjects, dose-dependent up to 240 mg, 24 to 96 hours post-dose) was “increased”. For the same compound, the glucose levels (fasting plasma glucose; T2DM subjects) was “lowered glucose levels”, the “duration of glucose suppression” value (fasting plasma glucose; T2DM subjects, single dose) was “continued through 48 hours” and the “lowering of fasting plasma glucose” value (fasting plasma glucose; [8]) was 50 mg/dL. For the same compound, the “lowering of fasting plasma glucose, placebo adjusted” value (fasting plasma glucose; [8]) was 57 mg/dL, the “changes in active GLP-1 or insulin levels” value (fasting plasma glucose; all dose groups, single dose) was “did not generate a consistent trend” and the “duration of glucose suppression” value (fasting plasma glucose; normal healthy volunteers) was “continued through 48 hours”. The fasting plasma glucose (fasting plasma glucose; normal healthy volunteers, single dose 2 to 480 mg) was “lowered fasting plasma glucose”, the “24-hour glucose AUC (continuous glucose monitoring)” value (fasting plasma glucose; subjects with T2DM) was “reduction” and the “mean glucagon and total GLP-1 levels” value (fasting plasma glucose; subjects with T2DM, compared to placebo, 24 to 72 hours post-dose) was “increased compared to placebo treatment”.
